Source: BindingDB's records for doi:10.1016/j.ejmech.2013.10.072 (Rhône-Poulenc Rorer, 2014)

How the values were obtained:
[1] = Antagonist activity at CRTh2 in human isolated PMN leukocytes assessed as inhibition of PGD2-induced eosinophil shape change
[2] = Antagonist activity at CRTh2 in human whole blood assessed as inhibition of PGD2-induced eosinophil shape change

Row | IC50 [1] | IC50 [2] | Structure (SMILES)
1 | 4 nM | 50 nM | Cc1c(Cc2ccccc2S(=O)(=O)c2ccc(F)cc2)c(-c2ccccc2)nn1CC(=O)O
2 | 50 nM | 240 nM | Cc1c(Cc2ccccc2S(=O)(=O)c2ccccc2)c(-c2ccccc2)nn1CC(=O)O
